ChEMBL document CHEMBL4616581, “Current scenario of artemisinin and its analogues for antimalarial activity” (Eur J Med Chem, 2019)
Converted amounts (≈) assume the structure as drawn.

Columns and labels:
Assay type in all cases: functional, organism-based
Plasmodium falciparum [1] = assay: Antimalarial activity against Plasmodium falciparum D6
Plasmodium falciparum [2] = assay: Antimalarial activity against Plasmodium falciparum W2
Plasmodium falciparum [3] = assay: Antimalarial activity against blood stages of chloroquine-resistant Plasmodium falciparum K1
Plasmodium falciparum [4] = assay: Antimalarial activity against Plasmodium falciparum D6 after 24 hrs by in presence of [3H]hypoxanthine
Plasmodium falciparum [5] = assay: Antimalarial activity against Plasmodium falciparum W2 after 24 hrs by in presence of [3H]hypoxanthine
Plasmodium falciparum [6] = assay: Antimalarial activity against Plasmodium falciparum NF54 after 48 hrs by spectrophotometric analysis; details: NF54, 48 h
Plasmodium falciparum [7] = assay: Antimalarial activity against Plasmodium falciparum K1 by [3H]-hypoxanthine incorporation assay

Question: How did the IC50 (Plasmodium falciparum [1]) turn out when `COC(=O)CC[C@H](OC1O[C@@H]2O[C@]3(C)CC[C@H]4[C@H](C)CC[C@@H]([C@H]1C)[C@@]24OO3)c1ccc(Cl)cc1` (some centres not stated) was run?
Answer: The IC50 was 0.903 ng/mL (≈ 1.82 nM).

Question: What about the IC50 (Plasmodium falciparum [2]) of the same molecule?
Answer: The IC50 was 0.794 ng/mL.

Question: `C[C@H]1[C@@H](OCc2ccc(C(=O)O)cc2)O[C@@H]2C[C@]3(C)CC[C@H]4[C@H](C)CC[C@@H]1[C@@]24OO3` was tested. Which IC50 (Plasmodium falciparum [3]) did it give?
Answer: The IC50 was 1.38 ng/mL.

Question: Which results are given for `C[C@H]1[C@@H](OC2O[C@H](CO)[C@@H](O)[C@H](O)[C@H]2O)O[C@@H]2O[C@]3(C)CC[C@H]4[C@H](C)CC[C@@H]1[C@@]24OO3` (some centres not stated)?
Answer: IC50 (Plasmodium falciparum [4]): 122 ng/mL; IC50 (Plasmodium falciparum [5]): 34.1 ng/mL

Question: With `COC(=O)CC[C@@H](OC1O[C@@H]2O[C@]3(C)CC[C@H]4[C@H](C)CC[C@@H]([C@H]1C)[C@@]24OO3)c1ccc(Cl)cc1` (some centres not stated) as the molecule, how does the IC50 (Plasmodium falciparum [1]) read?
Answer: The IC50 was 0.727 ng/mL (≈ 1.47 nM).

Question: What about the IC50 (Plasmodium falciparum [2]) of the same molecule?
Answer: Its IC50 is 0.629 ng/mL.

Question: Which results are given for `C[C@H]1[C@@H](O[C@H](C)CC(=O)O)O[C@@H]2O[C@]3(C)CC[C@H]4[C@H](C)CC[C@@H]1[C@@]24OO3`?
Answer: IC50 (Plasmodium falciparum [4]): 36.5 ng/mL; IC50 (Plasmodium falciparum [5]): 4.42 ng/mL

Question: How did the IC50 (Plasmodium falciparum [6]) turn out when `COc1ccc(OC)c(COC2O[C@@H]3O[C@]4(C)CC[C@H]5[C@H](C)CC[C@H]([C@@]35OO4)[C@@]2(C)O)c1` (some centres not stated) was run?
Answer: Its IC50 is 125 nM.

Question: `COC(=O)CCC(OC1O[C@@H]2O[C@]3(C)CC[C@H]4[C@H](C)CC[C@@H]([C@H]1C)[C@@]24OO3)c1ccc(Cl)cc1` (some centres not stated) was tested. Which IC50 (Plasmodium falciparum [1]) did it give?
Answer: The IC50 was 0.391 ng/mL (≈ 0.79 nM).

Question: And the IC50 (Plasmodium falciparum [2])?
Answer: Its IC50 is 0.656 ng/mL.

Question: Which IC50 (Plasmodium falciparum [2]) does the source give for `C[C@H]1[C@@H](C(F)(F)F)O[C@@H]2O[C@]3(C)CC[C@H]4[C@H](C)CC[C@@H]1[C@@]24OO3` here?
Answer: Its IC50 is 6.2 nM.

Question: For `CC[C@H]1O[C@@H]2O[C@]3(C)CC[C@H]4[C@H](C)CC[C@@H]([C@H]1C)[C@@]24OO3`, which IC50 (Plasmodium falciparum [1]) is on record?
Answer: The IC50 was 1.09 ng/mL (≈ 3.68 nM).

Question: And the IC50 (Plasmodium falciparum [2])?
Answer: The IC50 was 0.29 ng/mL.

Question: How did the IC50 (Plasmodium falciparum [6]) turn out when `C[C@@H]1CC[C@H]2[C@@H](C)C(OC(=O)c3ccc([N+](=O)[O-])cc3)O[C@@H]3O[C@]4(C)CC[C@@H]1[C@]32OO4` (some centres not stated) was run?
Answer: Its IC50 is 8.54 nM.

Question: `CCO[C@H]1O[C@@H]2C[C@]3(C)CC[C@H]4[C@H](C)CC[C@@H]([C@H]1C)[C@@]24OO3` was tested. Which IC50 (Plasmodium falciparum [3]) did it give?
Answer: The IC50 was 12.8 nM.

Question: `C[C@@H]1CC[C@H]2[C@H](C[C@@]3(CCCCCCC4C(=O)O[C@@H]5O[C@]6(C)CC[C@H]7[C@H](C)CC[C@@H]4[C@@]57OO6)C(=O)O[C@@H]4O[C@]5(C)CC[C@H]6[C@H](C)CC[C@@H]3[C@@]46OO5)C(=O)O[C@@H]3O[C@]4(C)CC[C@@H]1[C@]32OO4` (some centres not stated) was tested. Which EC50 (Plasmodium falciparum [7]) did it give?
Answer: The EC50 was 2.4 nM.

Question: Which EC50 (Plasmodium falciparum [7]) does the source give for `C[C@@H]1CC[C@H]2[C@H](C[C@@]3(CCCCCCC[C@]4(C[C@H]5C(=O)O[C@@H]6O[C@]7(C)CC[C@H]8[C@H](C)CC[C@@H]5[C@@]68OO7)C(=O)O[C@@H]5O[C@]6(C)CC[C@H]7[C@H](C)CC[C@@H]4[C@@]57OO6)C(=O)O[C@@H]4O[C@]5(C)CC[C@H]6[C@H](C)CC[C@@H]3[C@@]46OO5)C(=O)O[C@@H]3O[C@]4(C)CC[C@@H]1[C@]32OO4` here?
Answer: The EC50 was 20 nM.

Question: Which results are given for `C[C@H]1[C@@H](OC[C@H](C)C(=O)O)O[C@@H]2O[C@]3(C)CC[C@H]4[C@H](C)CC[C@@H]1[C@@]24OO3`?
Answer: IC50 (Plasmodium falciparum [4]): 28.7 ng/mL; IC50 (Plasmodium falciparum [5]): 8.33 ng/mL

Question: How did the IC50 (Plasmodium falciparum [6]) turn out when `C[C@@H]1CC[C@@H]2[C@]34OO[C@@](C)(CC[C@@H]13)O[C@H]4OC(OCc1ccc3c(c1)OCO3)[C@]2(C)O` (some centres not stated) was run?
Answer: The IC50 was 110 nM.

Question: `C[C@@H]1CC[C@H]2[C@H](C[C@@]3(CCCCCC[C@]4(C[C@H]5C(=O)O[C@@H]6O[C@]7(C)CC[C@H]8[C@H](C)CC[C@@H]5[C@@]68OO7)C(=O)O[C@@H]5O[C@]6(C)CC[C@H]7[C@H](C)CC[C@@H]4[C@@]57OO6)C(=O)O[C@@H]4O[C@]5(C)CC[C@H]6[C@H](C)CC[C@@H]3[C@@]46OO5)C(=O)O[C@@H]3O[C@]4(C)CC[C@@H]1[C@]32OO4` was tested. Which EC50 (Plasmodium falciparum [7]) did it give?
Answer: Its EC50 is 5.8 nM.

Question: `C[C@@H]1CC[C@H]2[C@](C)(Br)[C@@H](Nc3nccs3)O[C@@H]3O[C@]4(C)CC[C@@H]1[C@]32OO4` was tested. Which IC50 (Plasmodium falciparum [1]) did it give?
Answer: Its IC50 is 0.91 ng/mL (≈ 2.04 nM).

Question: And the IC50 (Plasmodium falciparum [2])?
Answer: The IC50 was 0.21 ng/mL.

Question: Which results are given for `C[C@@H]1CC[C@H]2[C@](C)(Br)[C@@H](Nc3cccc(F)c3)O[C@@H]3O[C@]4(C)CC[C@@H]1[C@]32OO4`?
Answer: IC50 (Plasmodium falciparum [1]): 0.16 ng/mL (≈ 0.351 nM); IC50 (Plasmodium falciparum [2]): < 0.16 ng/mL

Question: For `C[C@@H]1CC[C@H]2[C@@H](C)C(OC(=O)c3cccc4c3OCO4)O[C@@H]3O[C@]4(C)CC[C@@H]1[C@]32OO4` (some centres not stated), which IC50 (Plasmodium falciparum [6]) is on record?
Answer: The IC50 was 8.08 nM.

Question: What does the source list for `COC(=O)[C@H](C)CO[C@H]1O[C@@H]2O[C@]3(C)CC[C@H]4[C@H](C)CC[C@@H]([C@H]1C)[C@@]24OO3`?
Answer: IC50 (Plasmodium falciparum [4]): 2.15 ng/mL; IC50 (Plasmodium falciparum [5]): 0.057 ng/mL

Question: How did the IC50 (Plasmodium falciparum [4]) turn out when `COC(=O)C[C@@H](C)O[C@H]1O[C@@H]2O[C@]3(C)CC[C@H]4[C@H](C)CC[C@@H]([C@H]1C)[C@@]24OO3` was run?
Answer: Its IC50 is 0.44 ng/mL.

Question: And the IC50 (Plasmodium falciparum [5])?
Answer: Its IC50 is 0.071 ng/mL.

Question: For `C[C@@H]1CC[C@H]2[C@@H](C)C(O)O[C@@H]3C[C@]4(C)CC[C@@H]1[C@]32OO4` (some centres not stated), which IC50 (Plasmodium falciparum [3]) is on record?
Answer: The IC50 was 0.69 ng/mL.

Question: Which IC50 (Plasmodium falciparum [1]) does the source give for `C[C@@H]1CC[C@H]2[C@](C)(Br)[C@@H](Nc3ccccn3)O[C@@H]3O[C@]4(C)CC[C@@H]1[C@]32OO4` here?
Answer: The IC50 was 7.72 ng/mL (≈ 17.6 nM).

Question: What about the IC50 (Plasmodium falciparum [2]) of the same molecule?
Answer: Its IC50 is 1.19 ng/mL.

Question: `C[C@H]1[C@@H](O[C@@H]2O[C@H](CO)[C@@H](O[C@@H]3O[C@H](CO)[C@@H](O)[C@H](O)[C@H]3O)[C@H](O)[C@H]2O)O[C@@H]2O[C@]3(C)CC[C@H]4[C@H](C)CC[C@@H]1[C@@]24OO3` was tested. Which IC50 (Plasmodium falciparum [4]) did it give?
Answer: The IC50 was 710 ng/mL.

Question: And the IC50 (Plasmodium falciparum [5])?
Answer: The IC50 was 171 ng/mL.
